{
  "source": "patent US12146185B2",
  "about": "“Genetic markers for enhancing efficacy of antipsychotic treatment with iloperidone” (Vanda Pharmaceuticals Inc., priority 2018, dated 2024)",
  "tested_on": "schizophrenia patients",
  "test": "Genome-wide association study of iloperidone efficacy (PANSS-T) in a randomized, double-blind, placebo- and ziprasidone-controlled 28-day study",
  "format": "in vivo, human",
  "details": "for Genotype associated with lower treatment effect: PANSS-T",
  "description": "A genome-wide association study (GWAS) is performed to improve understanding of the pharmacogenomic basis of response to iloperidone treatment of schizophrenia patients. In the GWAS, genotypes of 205 patients are utilized to evaluate treatment with iloperidone. Linear regression is used to directly test the association between single nucleotide polymorphisms (SNPs) and PANSS-T (day 28), correcting for essential covariates including principal components.\nPatients 18-65 years of age with diagnoses of schizophrenia according to the Diagnostic and Statistical Manual of Mental Disorders, 4th Edition are eligible to participate in a randomized, double-blind, placebo- and ziprasidione-controlled, 28-day study of the efficacy and safety of iloperidone. Patients are randomly assigned to iloperidone 12 mg bid, ziprasidone 80 mg bid (active control), or placebo. The primary efficacy variable is change from baseline to the last scheduled observation in PANSS-T using the data from the short-term, double-blind phase. A secondary objective is to identify genetic markers predictive of response to iloperidone. Blood samples are collected, and DNA is extracted from patients who consented to the optional GWAS.\nThree analyses of the PANSS-T are conducted: 1) A two-step approach where samples are randomly split into 2 groups of iloperidone-treated patients used to discover SNPs associated with change in PANSS-T (Discovery phase) and a second group to confirm the 100 most significant SNPs (Confirmatory phase). 2) A one-step approach using the Last Observation Carried Forward (LOCF) PANSS-T data of all iloperidone-treated patients. For each SNP, the most parsimonious genetic model (e.g., homozygous for one allele v. all other genotypes [i.e., AA v. AB and BB], heterozygous v. homozygous [i.e., AB v. AA and BB]) was established with respect to iloperidone efficacy using a one-way analysis of variance (ANOVA). 3) A Mixed-effects Model Repeated Measures (MMRM) analysis was subsequently conducted using the best genetic model of each SNP in the MMRM model. MMRM analyses were also conducted with the PANSS subscales PANSS-P, PANSS-N, and PANSS-GP.\nThe SNPs with a statistically significant association in all 3 analyses of PANSS-T, as well as the best of each analysis are considered significant findings and are listed below in Table 3.\nA logistic regression is conducted based on binary cutoffs at PANSS-T≥30 and on the top ends of the distribution logistic model, splitting the data set into two groups: robust responders (i.e., responders having PANSS_T change≥30) and weak responders (i.e., responders having PANSS-T change<20). A significant GRM8 signal is observed in allelic tests conducted, that is, linear association is observed with PANSS-T day 28, logistic model with tot change>=30 vs weak (<20) and logistic association with high and low PANSS-T.",
  "data": [
    {"smiles": "COc1cc(C(C)=O)ccc1OCCCN1CCC(c2noc3cc(F)ccc23)CC1", "note": "[iloperidone, 1-[4-[3-[4-(6-fluoro-1,2-benzisoxazol-3-yl)-1-piperidinyl]propoxy]-3-methoxyphenyl]ethanone]", "values": [
      {"measurement": "Genotype associated with lower treatment effect", "setting": "GRIP1 rs11176436", "value": "nonTT"},
      {"measurement": "Genotype associated with lower treatment effect", "setting": "GRM8 rs2299503", "value": "nonAA"},
      {"measurement": "Genotype associated with lower treatment effect", "setting": "GRM8 rs11763603", "value": "nonCC"},
      {"measurement": "Genotype associated with lower treatment effect", "setting": "GRM8 rs13222700", "value": "nonTT"},
      {"measurement": "Genotype associated with lower treatment effect", "setting": "NRXN3 rs17109739", "value": "nonCC"},
      {"measurement": "Genotype associated with lower treatment effect", "setting": "NTRK2 rs7049108", "value": "nonGG"},
      {"measurement": "Genotype associated with lower treatment effect", "setting": "SHANK2 rs579298", "value": "nonTT"},
      {"measurement": "iloperidone treatment effect as measured by PANSS-T by rs13222700 genotype", "setting": "TT (homozygous minor allele) vs GT or GG, iloperidone 12 mg bid, PANSS-T day 28, FIG. 1", "value": "significantly higher treatment effect"},
      {"measurement": "iloperidone treatment effect as measured by PANSS-T change by rs13222700 genotype", "setting": "TT vs GT or GG, iloperidone 12 mg bid, FIG. 3", "value": "significantly larger change in PANSS-T score"},
      {"measurement": "P of association of GRM8 variant rs13222700 with iloperidone efficacy", "setting": "top locus of association analyses, chromosome 7", "value": "< 1×10^−5"}
    ]}
  ]
}
